Laboratory results from patent US20150259319A1, “AROMATIC ALKENOIC ACID DERIVATIVES” (Symrise AG, priority 2014, published 2015).

System: human neuroblastoma cells (SH-SY5Y)
Test: Serotonin release of SH-SY5Y cells after stimulation (Serotonin-ELISA, standardized to DNA content)
Conditions: for Serotonin release [% control]: 3 minutes stimulation in Krebs-Ringer HEPES buffer
Description: After serotonin release, the cells are harvested with trypsin and, after a vitality test by trypan blue staining, sown in a defined number of cells in 35 mm cell culture dishes.
The cells are lysed with a sodium laurylsarcosinate-containing buffer and the DNA content is ascertained with the aid of a NanoQuant plate (Tecan, Ménnendorf, Switzerland) for standardization of the serotonin release.

Structure (SMILES) | Serotonin release [% control] (0.01 μM compound) | Serotonin release [% control] (0.1 μM compound) | rise in serotonin release compared to the control (1 μM compound) | Serotonin release [% control] (1 μM compound) | Serotonin release [% control] (10 μM compound)
O=C(/C=C/C=C/CCc1ccc2c(c1)OCO2)N1CCCCC1 [Compound 3, 2E,4E-7-(1,3-Benzodioxol-5-yl)-1-(1-piperidyl)hepta-2,4-dien-1-one] | 161 % control | 141 % control | 280% | 283 % control | 226 % control
COC(=O)/C=C/C=C/CCc1ccc2c(c1)OCO2 [Compound 4, 2E,4E-Methyl 7-(1,3-benzodioxol-5-yl)hepta-2,4-dienoate] | 129 % control | 123 % control | 240% | 239 % control | 171 % control
